In patent US20230131966A1, “FUNGICIDAL AMIDES” (FMC Corporation, priority 2020, published 2023):

Key:
Type in all cases: in vivo
[1] = tested on: Puccinia recondita f. sp. tritici; experiment: Test B: wheat leaf rust control on wheat seedlings
Phakopsora pachyrhizi = experiment: Test A: Asian soybean rust control on soybean seedlings
Phytophthora infestans = experiment: whole plant or invertebrate; settings: tomato seedlings; for Test F disease control rating: 250 ppm
[2] = tested on: Erysiphe graminis f. sp. tritici; experiment: Test G: wheat powdery mildew control on wheat seedlings
Zymoseptoria tritici = experiment: Test C: wheat leaf blotch control on wheat seedlings
Botrytis cinerea = experiment: Test E: tomato Botrytis control on tomato seedlings
Plasmopara viticola = experiment: Test D: grape downy mildew control on grape seedlings
[3] = 250 ppm, wheat seedlings, 100 = 100% disease control, 0 = no control
[4] = 250 ppm, soybean seedlings, 100 = 100% disease control, 0 = no control
[5] = 100 = 100% disease control, 0 = no control
[6] = 250 ppm, 100 = 100% disease control, 0 = no control
[7] = rate 250 ppm, relative to the controls

COc1cccc(C(=O)NC(C)C(=O)OC(C)C2CCCCC2)c1O (mixture of isomers) [Compound 91]
Test B disease control rating [1, 3]: 0%
Test A disease control rating (Phakopsora pachyrhizi; [4]): 0%
Test F disease control rating (Phytophthora infestans; [5]): 0%
Test G disease control rating [2, 6]: 0%
Test C disease control rating (Zymoseptoria tritici; [3]): 2%
Test E disease control rating (Botrytis cinerea; [6]): 0%
Test D disease control rating (Plasmopara viticola; [6]): 96%

COc1ccnc(C(=O)N[C@@H](C)C(=O)OC(C)c2ccc(C(C)(C)C)cc2)c1OC(C)=O (some centres unmarked) [Compound 121]
Test B disease control rating [1, 3]: 100%
Test A disease control rating (Phakopsora pachyrhizi; [4]): 100%
Test F disease control rating (Phytophthora infestans; [5]): 0%
Test G disease control rating [2, 6]: 0%
Test C disease control rating (Zymoseptoria tritici; [3]): 99%
Test E disease control rating (Botrytis cinerea; [6]): 9%
Test D disease control rating (Plasmopara viticola; [6]): 50%

COc1ccnc(C(=O)N[C@@H](C)C(=O)OC(C)c2ccc(F)cc2Cc2ccccc2)c1OC(C)=O (single isomer, unassigned) [Compound 38]
Test B disease control rating [1, 3]: 41%
Test A disease control rating (Phakopsora pachyrhizi; [4]): 0%
Test F disease control rating (Phytophthora infestans; [5]): 0%
Test G disease control rating [2, 6]: 0%
Test C disease control rating (Zymoseptoria tritici; [3]): 53%
Test E disease control rating (Botrytis cinerea; [6]): 0%
Test D disease control rating (Plasmopara viticola; [6]): 44%

COc1ccnc(C(=O)N[C@@H](C)C(=O)OC(C)c2ccc(F)cc2Cc2ccccc2)c1O (single isomer, unassigned) [Compound 23]
Test B disease control rating [1, 3]: 97%
Test A disease control rating (Phakopsora pachyrhizi; [4]): 100%
Test F disease control rating (Phytophthora infestans; [5]): 0%
Test G disease control rating [2, 6]: 0%
Test C disease control rating (Zymoseptoria tritici; [3]): 95%
Test E disease control rating (Botrytis cinerea; [6]): 0%
Test D disease control rating (Plasmopara viticola; [6]): 44%

COc1ccnc(C(=O)N[C@@H](C)C(=O)O[C@@H](C)c2ccc(C3CCCCC3)cc2)c1OC(C)=O [Compound 95, N-[[3-(acetyloxy)-4-methoxy-2-pyridinyl]carbonyl]-L-alanine (1S)-1-(4-cyclohexylphenyl)ethyl ester]
pest or weed control at 250 ppm ([1]; Puccinia recondita, 250 ppm, wheat seedlings, 100 = 100% disease control, 0 = no control, read-out: Test B disease control rating): 100%
pest or weed control at 250 ppm (Phakopsora pachyrhizi; Phakopsora pachyrhizi, 250 ppm, soybean seedlings, 100 = 100% disease control, 0 = no control, read-out: Test A disease control rating): 100%
pest or weed control at 250 ppm (Phytophthora infestans; Phytophthora infestans, in Solanum lycopersicum, read-out: Test F disease control rating, 250 ppm, 100 = 100% disease control, 0 = no control): 0%
pest or weed control at 250 ppm ([2]; Blumeria graminis, 250 ppm, 100 = 100% disease control, 0 = no control, read-out: Test G disease control rating): 0%
pest or weed control at 250 ppm (Zymoseptoria tritici; Zymoseptoria tritici, 250 ppm, wheat seedlings, 100 = 100% disease control, 0 = no control, read-out: Test C disease control rating): 100%
pest or weed control at 250 ppm (Botrytis cinerea; Botrytis cinerea, 250 ppm, 100 = 100% disease control, 0 = no control, read-out: Test E disease control rating): 0%
pest or weed control at 250 ppm (Plasmopara viticola; Plasmopara viticola, 250 ppm, 100 = 100% disease control, 0 = no control, read-out: Test D disease control rating): 1%

COc1ccnc(C(=O)N[C@@H](C)C(=O)OC(C)c2ccc(C3CCCCC3)cc2)c1OCOC(=O)C(C)C (single isomer, unassigned) [Compound 144]
Test B disease control rating [1, 3]: 86%
Test A disease control rating (Phakopsora pachyrhizi; [4]): 77%
Test F disease control rating (Phytophthora infestans; [5]): 0%
Test G disease control rating [2, 6]: 0%
Test C disease control rating (Zymoseptoria tritici; [3]): 93%
Test E disease control rating (Botrytis cinerea; [6]): 0%
Test D disease control rating (Plasmopara viticola; [6]): 35%

CCC(OC(=O)[C@H](C)NC(=O)c1nccc(OC)c1OCOC(=O)C(C)C)C1CCCCC1 (single isomer, unassigned) [Compound 188]
Test B disease control rating (100 = 100% disease control, 0 = no disease control) [1, 7]: 68%
Test A disease control rating (100 = 100% disease control, 0 = no disease control) (Phakopsora pachyrhizi; [7]): 100%
Test F disease control rating (100 = 100% disease control, 0 = no disease control) (Phytophthora infestans; [7]): 0%
Test G disease control rating (100 = 100% disease control, 0 = no disease control) [2, 7]: 0%
Test C disease control rating (100 = 100% disease control, 0 = no disease control) (Zymoseptoria tritici; [7]): 27%
Test E disease control rating (100 = 100% disease control, 0 = no disease control) (Botrytis cinerea; [7]): 0%
Test D disease control rating (100 = 100% disease control, 0 = no disease control) (Plasmopara viticola; [7]): 43%

COc1ccnc(C(=O)NC(C)C(=O)OC(C)c2ccc(F)cc2)c1OC(C)=O (mixture of isomers) [Compound 15]
Test B disease control rating [1, 3]: 19%
Test A disease control rating (Phakopsora pachyrhizi; [4]): 75%
Test F disease control rating (Phytophthora infestans; [5]): 0%
Test G disease control rating [2, 6]: 0%
Test C disease control rating (Zymoseptoria tritici; [3]): 69%
Test E disease control rating (Botrytis cinerea; [6]): 0%
Test D disease control rating (Plasmopara viticola; [6]): 39%

COc1ccnc(C(=O)NC(C)C(=O)OC(C)c2ccc(C#N)cc2)c1OC(C)=O (mixture of isomers) [Compound 33]
Test B disease control rating [1, 3]: 0%
Test A disease control rating (Phakopsora pachyrhizi; [4]): 13%
Test F disease control rating (Phytophthora infestans; [5]): 0%
Test G disease control rating [2, 6]: 0%
Test C disease control rating (Zymoseptoria tritici; [3]): 87%
Test E disease control rating (Botrytis cinerea; [6]): 0%
Test D disease control rating (Plasmopara viticola; [6]): 66%

CC(NC(=O)c1cccc(NC=O)c1O)C(=O)OC(C)c1cccc(OC2CCC(C)(C)CC2)c1 (mixture of isomers) [Compound 160]
Test B disease control rating [1, 3]: 92%
Test A disease control rating (Phakopsora pachyrhizi; [4]): 100%
Test F disease control rating (Phytophthora infestans; [5]): 80%
Test G disease control rating [2, 6]: 0%
Test C disease control rating (Zymoseptoria tritici; [3]): 92%
Test E disease control rating (Botrytis cinerea; [6]): 0%
Test D disease control rating (Plasmopara viticola; [6]): 98%

COc1ccnc(C(=O)N[C@@H](C)C(=O)OC(C)c2ccccc2-c2ccccc2)c1O (single isomer, unassigned) [Compound 2]
Test B disease control rating [1, 3]: 55%
Test A disease control rating (Phakopsora pachyrhizi; [4]): 99%
Test F disease control rating (Phytophthora infestans; [5]): 0%
Test G disease control rating [2, 6]: 0%
Test C disease control rating (Zymoseptoria tritici; [3]): 73%
Test E disease control rating (Botrytis cinerea; [6]): 0%
Test D disease control rating (Plasmopara viticola; [6]): 63%

CCC(OC(=O)[C@H](C)NC(=O)c1nccc(OC)c1OC(C)=O)c1ccc(C2CCCCC2)cc1 (single isomer, unassigned) [Compound 131]
Test B disease control rating [1, 3]: 96%
Test A disease control rating (Phakopsora pachyrhizi; [4]): 100%
Test F disease control rating (Phytophthora infestans; [5]): 0%
Test G disease control rating [2, 6]: 89%
Test C disease control rating (Zymoseptoria tritici; [3]): 87%
Test E disease control rating (Botrytis cinerea; [6]): 0%
Test D disease control rating (Plasmopara viticola; [6]): 6%

COc1ccnc(C(=O)NC(C)C(=O)OC(C)C23CC4CC(CC(C4)C2)C3)c1OC(C)=O (mixture of isomers) [Compound 43]
Test B disease control rating [1, 3]: 100%
Test A disease control rating (Phakopsora pachyrhizi; [4]): 100%
Test F disease control rating (Phytophthora infestans; [5]): 0%
Test G disease control rating [2, 6]: 0%
Test C disease control rating (Zymoseptoria tritici; [3]): 90%
Test E disease control rating (Botrytis cinerea; [6]): 0%
Test D disease control rating (Plasmopara viticola; [6]): 71%

CCC(OC(=O)[C@H](C)NC(=O)c1nccc(OC)c1OCOC(=O)C(C)C)c1ccc(C2CCCCC2)cc1 (single isomer, unassigned) [Compound 133]
Test B disease control rating [1, 3]: 99%
Test A disease control rating (Phakopsora pachyrhizi; [4]): 100%
Test F disease control rating (Phytophthora infestans; [5]): 0%
Test G disease control rating [2, 6]: 0%
Test C disease control rating (Zymoseptoria tritici; [3]): 93%
Test E disease control rating (Botrytis cinerea; [6]): 0%
Test D disease control rating (Plasmopara viticola; [6]): 24%

COc1ccnc(C(=O)NC(C)C(=O)OC(C)c2ccc(C#C[Si](C)(C)C)cc2)c1O (mixture of isomers) [Compound 69]
Test B disease control rating [1, 3]: 100%
Test A disease control rating (Phakopsora pachyrhizi; [4]): 100%
Test F disease control rating (Phytophthora infestans; [5]): 9%
Test G disease control rating [2, 6]: 0%
Test C disease control rating (Zymoseptoria tritici; [3]): 94%
Test E disease control rating (Botrytis cinerea; [6]): 0%
Test D disease control rating (Plasmopara viticola; [6]): 50%

COc1ccnc(C(=O)NC(C)C(=O)N(C)C(C)c2ccc(C3CCCCC3)cc2)c1O (mixture of isomers) [Compound 98]
Test B disease control rating [1, 3]: 0%
Test A disease control rating (Phakopsora pachyrhizi; [4]): 89%
Test F disease control rating (Phytophthora infestans; [5]): 0%
Test G disease control rating [2, 6]: 0%
Test C disease control rating (Zymoseptoria tritici; [3]): 59%
Test E disease control rating (Botrytis cinerea; [6]): 0%
Test D disease control rating (Plasmopara viticola; [6]): 71%

COc1ccnc(C(=O)N[C@@H](C)C(=O)OC(C)c2cccc(-c3ccccc3)c2)c1O (single isomer, unassigned) [Compound 4]
Test B disease control rating [1, 3]: 41%
Test A disease control rating (Phakopsora pachyrhizi; [4]): 99%
Test F disease control rating (Phytophthora infestans; [5]): 0%
Test G disease control rating [2, 6]: 0%
Test C disease control rating (Zymoseptoria tritici; [3]): 28%
Test E disease control rating (Botrytis cinerea; [6]): 31%
Test D disease control rating (Plasmopara viticola; [6]): 56%
